{"source": "patent US9758524B2", "about": "“4-imidazopyridazin-1-yl-benzamides as Btk inhibitors” (Merck Sharp & Dohme B.V., priority 2011, dated 2017)", "key": {"FynT enzyme": {"molecular_target": "FynT enzyme (Homo sapiens (Human), UniProt P06241)", "sequence (P06241 other isoform, or with tags, fused parts or gaps)": "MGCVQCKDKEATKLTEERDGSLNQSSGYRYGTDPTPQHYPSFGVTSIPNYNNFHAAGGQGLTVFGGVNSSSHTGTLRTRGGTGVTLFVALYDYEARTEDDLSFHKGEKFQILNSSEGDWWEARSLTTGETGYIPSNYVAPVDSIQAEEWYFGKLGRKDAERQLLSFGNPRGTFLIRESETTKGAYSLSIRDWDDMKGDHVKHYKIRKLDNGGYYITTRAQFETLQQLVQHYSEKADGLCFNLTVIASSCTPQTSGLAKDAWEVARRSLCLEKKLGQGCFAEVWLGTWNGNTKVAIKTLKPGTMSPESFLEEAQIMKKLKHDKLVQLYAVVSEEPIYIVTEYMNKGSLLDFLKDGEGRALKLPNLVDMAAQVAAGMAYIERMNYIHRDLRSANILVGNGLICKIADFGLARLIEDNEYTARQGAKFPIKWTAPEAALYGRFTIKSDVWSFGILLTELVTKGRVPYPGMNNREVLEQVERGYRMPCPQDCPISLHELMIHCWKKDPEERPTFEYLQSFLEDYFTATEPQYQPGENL", "assay": "FynT enzyme activity (IMAP fluorescence polarization assay)", "format": "biochemical", "conditions": "60 min pre-incubation, 0.2 μM ATP", "outline": "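Human FynT pre-incubated with compounds 60 min at room temperature, then reacted 2 h at room temperature with fluorescein-labelled p34cdc2 peptide (100 nM final). Stopped with IMAP binding solution; fluorescence polarization read after 60 min. Activity as % of ±ATP control difference; EC50 by curve fitting.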"}, "Btk enzyme (His-Btk)": {"molecular_target": "Btk enzyme (His-Btk) (Homo sapiens (Human), UniProt Q06187)", "sequence (Q06187 whole entry)": "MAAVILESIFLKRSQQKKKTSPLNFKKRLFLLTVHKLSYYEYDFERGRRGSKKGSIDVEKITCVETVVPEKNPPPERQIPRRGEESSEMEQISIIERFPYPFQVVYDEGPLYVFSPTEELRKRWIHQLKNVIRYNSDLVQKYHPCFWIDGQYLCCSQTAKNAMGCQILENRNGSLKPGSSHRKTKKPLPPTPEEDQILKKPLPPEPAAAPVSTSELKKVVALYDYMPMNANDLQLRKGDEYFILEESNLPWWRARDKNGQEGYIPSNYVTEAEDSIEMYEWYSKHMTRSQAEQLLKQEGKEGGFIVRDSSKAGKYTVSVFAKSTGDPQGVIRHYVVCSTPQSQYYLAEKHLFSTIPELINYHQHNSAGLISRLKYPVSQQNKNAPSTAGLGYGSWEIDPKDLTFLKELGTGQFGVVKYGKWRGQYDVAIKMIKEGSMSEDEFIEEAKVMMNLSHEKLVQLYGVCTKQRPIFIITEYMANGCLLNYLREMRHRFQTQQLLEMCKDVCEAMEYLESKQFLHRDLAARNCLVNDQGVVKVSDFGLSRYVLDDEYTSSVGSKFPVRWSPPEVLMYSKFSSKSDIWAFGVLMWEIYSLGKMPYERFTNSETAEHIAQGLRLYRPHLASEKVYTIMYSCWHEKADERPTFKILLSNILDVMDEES", "assay": "Btk enzyme activity (IMAP fluorescence polarization assay)"}, "Lck enzyme": {"molecular_target": "Lck enzyme (Homo sapiens (Human), UniProt P06239)", "sequence (P06239 whole entry)": "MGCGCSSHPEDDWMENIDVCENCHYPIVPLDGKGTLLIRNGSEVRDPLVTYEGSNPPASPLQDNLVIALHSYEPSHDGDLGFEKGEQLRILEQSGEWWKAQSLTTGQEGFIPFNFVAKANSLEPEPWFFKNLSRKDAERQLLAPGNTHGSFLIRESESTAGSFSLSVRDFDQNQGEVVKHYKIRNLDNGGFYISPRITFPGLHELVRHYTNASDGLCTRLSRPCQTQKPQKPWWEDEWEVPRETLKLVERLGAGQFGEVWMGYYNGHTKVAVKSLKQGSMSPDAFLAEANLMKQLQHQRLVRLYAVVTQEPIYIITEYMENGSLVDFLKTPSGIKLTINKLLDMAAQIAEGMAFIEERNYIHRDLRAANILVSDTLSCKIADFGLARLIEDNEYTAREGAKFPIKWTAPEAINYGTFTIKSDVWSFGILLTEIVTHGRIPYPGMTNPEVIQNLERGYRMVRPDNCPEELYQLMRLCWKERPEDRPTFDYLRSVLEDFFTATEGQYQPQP", "assay": "Lck enzyme activity (IMAP fluorescence polarization assay)"}, "Src enzyme": {"molecular_target": "Src enzyme (Homo sapiens (Human), UniProt P12931)", "sequence (P12931 whole entry, looked up)": "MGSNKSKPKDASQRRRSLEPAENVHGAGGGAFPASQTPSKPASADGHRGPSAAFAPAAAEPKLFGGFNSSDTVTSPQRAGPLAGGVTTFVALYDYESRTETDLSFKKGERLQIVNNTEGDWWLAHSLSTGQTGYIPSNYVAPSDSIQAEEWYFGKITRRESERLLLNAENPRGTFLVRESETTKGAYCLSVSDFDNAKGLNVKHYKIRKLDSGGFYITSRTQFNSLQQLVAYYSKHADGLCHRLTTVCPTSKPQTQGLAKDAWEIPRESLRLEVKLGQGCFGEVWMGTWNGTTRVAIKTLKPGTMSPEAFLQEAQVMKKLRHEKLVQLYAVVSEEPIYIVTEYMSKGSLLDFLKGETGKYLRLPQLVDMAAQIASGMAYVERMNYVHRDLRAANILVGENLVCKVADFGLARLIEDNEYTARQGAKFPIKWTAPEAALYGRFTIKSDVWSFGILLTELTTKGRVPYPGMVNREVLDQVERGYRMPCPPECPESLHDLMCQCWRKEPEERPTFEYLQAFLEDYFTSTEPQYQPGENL", "assay": "Src enzyme activity (IMAP fluorescence polarization assay)", "conditions": "read-out: EC50 Src activity values; IMAP, 60 min pre-incubation, 4 μM ATP"}, "Lyn enzyme": {"molecular_target": "Lyn enzyme (Homo sapiens (Human), UniProt P07948)", "sequence (P07948 whole entry)": "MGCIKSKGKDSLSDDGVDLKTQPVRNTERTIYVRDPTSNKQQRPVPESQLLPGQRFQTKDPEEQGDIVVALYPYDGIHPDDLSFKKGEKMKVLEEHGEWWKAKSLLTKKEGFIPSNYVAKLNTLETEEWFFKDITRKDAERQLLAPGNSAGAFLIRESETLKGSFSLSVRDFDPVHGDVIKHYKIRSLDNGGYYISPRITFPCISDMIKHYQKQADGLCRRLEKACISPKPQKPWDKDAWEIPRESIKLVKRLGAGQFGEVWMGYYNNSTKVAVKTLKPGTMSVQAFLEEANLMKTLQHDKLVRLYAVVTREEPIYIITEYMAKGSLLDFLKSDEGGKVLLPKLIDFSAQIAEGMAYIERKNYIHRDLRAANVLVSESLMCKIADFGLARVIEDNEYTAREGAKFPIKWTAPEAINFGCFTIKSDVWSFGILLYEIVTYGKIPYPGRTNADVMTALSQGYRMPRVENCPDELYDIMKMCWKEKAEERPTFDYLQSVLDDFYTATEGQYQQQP", "assay": "Lyn enzyme activity (IMAP fluorescence polarization assay)", "conditions": "read-out: EC50 Lyn activity values, 60 min pre-incubation, 2 μM ATP, bin bound in μM"}, "[1]": {"conditions": "IMAP, 60 min pre-incubation, 5 μM ATP, bin bound in nM"}, "[2]": {"conditions": "read-out: EC50 Lck activity values, IMAP, 60 min pre-incubation, 6 μM ATP, bin bound in μM"}, "[3]": {"conditions": "read-out: EC50 Btk activity values, IMAP, 60 min pre-incubation, 5 μM ATP, bin bound in nM"}}, "note": "Like-named read-outs stand apart in the source and are kept apart here."}
{"smiles": "COC/C=C/C(=O)N1CCC[C@H]1c1nc(-c2ccc(C(=O)Nc3ccccn3)c(OC)c2)c2c(N)nccn12", "note": "[Example 103, (S,E)-4-(8-amino-3-(1-(4-methoxybut-2-enoyl)pyrrolidin-2-yl)imidazo[1,5-a]pyrazin-1-yl)-2-methoxy-N-(pyridin-2-yl)benzamide]", "values": [{"measurement": "EC50", "setting": "FynT enzyme", "result": "≥ 1", "unit": "µM"}, {"measurement": "EC50", "setting": "Btk enzyme (His-Btk)", "result": "10 to 100", "unit": "nM"}, {"measurement": "EC50 Btk activity values", "setting": "Btk enzyme (His-Btk); [1]", "result": "<100", "unit": "nM"}, {"measurement": "EC50", "setting": "Lck enzyme; [2]", "result": "≥ 1", "unit": "µM"}, {"measurement": "EC50", "setting": "Src enzyme", "result": "≥ 1", "unit": "µM"}, {"measurement": "EC50", "setting": "Lyn enzyme", "result": "≥ 1", "unit": "µM"}]}
{"smiles": "C=CS(=O)(=O)N1CCCC[C@H]1c1nc(-c2ccc(C(=O)Nc3cc(CCC)ccn3)cc2)c2c(N)nccn12", "note": "[Example 49, (S)-4-(8-amino-3-(1-(vinylsulfonyl)piperidin-2-yl)imidazo[1,5-a]pyrazin-1-yl)-N-(4-propylpyridin-2-yl)benzamide]", "values": [{"measurement": "EC50", "setting": "FynT enzyme", "result": "≥ 1", "unit": "µM"}, {"measurement": "EC50", "setting": "Btk enzyme (His-Btk); [3]", "result": "< 10", "unit": "nM"}, {"measurement": "EC50", "setting": "Lck enzyme; [2]", "result": "≥ 1", "unit": "µM"}, {"measurement": "EC50", "setting": "Src enzyme", "result": "≥ 1", "unit": "µM"}, {"measurement": "EC50", "setting": "Lyn enzyme", "result": "≥ 1", "unit": "µM"}]}
{"smiles": "Nc1nccn2c([C@@H]3CCCN3C(=O)/C=C/c3ccccc3)nc(-c3ccc(C(=O)Nc4ccccn4)cc3)c12", "note": "[Example 104, (S,E)-4-(8-amino-3-(1-cinnamoylpyrrolidin-2-yl)imidazo[1,5-a]pyrazin-1-yl)-N-(pyridin-2-yl)benzamide]", "values": [{"measurement": "EC50", "setting": "FynT enzyme", "result": "≥ 1", "unit": "µM"}, {"measurement": "EC50", "setting": "Btk enzyme (His-Btk)", "result": "100 to 1000", "unit": "nM"}, {"measurement": "EC50 Btk activity values", "setting": "Btk enzyme (His-Btk); IMAP, 60 min pre-incubation, 5 μM ATP, bin bound in μM", "result": "<1000", "unit": "nM"}, {"measurement": "EC50", "setting": "Lck enzyme", "result": "0.1 to 1", "unit": "µM"}, {"measurement": "EC50 Lck activity values", "setting": "Lck enzyme; IMAP, 60 min pre-incubation, 6 μM ATP, bin bound in μM", "result": "<1", "unit": "µM"}, {"measurement": "EC50", "setting": "Src enzyme", "result": "≥ 1", "unit": "µM"}, {"measurement": "EC50", "setting": "Lyn enzyme", "result": "≥ 1", "unit": "µM"}]}
{"smiles": "CC#CC(=O)N1CCC[C@H]1c1nc(-c2ccc(C(=O)Nc3cc(C(F)(F)F)ccn3)cc2)c2c(N)nccn12", "note": "[Example 10, (S)-4-(8-Amino-3-(1-but-2-ynoylpyrrolidin-2-yl)imidazo[1,5-a]pyrazin-1-yl)-N-(4-(trifluoromethyl)pyridin-2-yl)benzamide]", "values": [{"measurement": "EC50", "setting": "FynT enzyme", "result": "≥ 1", "unit": "µM"}, {"measurement": "EC50", "setting": "Btk enzyme (His-Btk); [3]", "result": "< 10", "unit": "nM"}, {"measurement": "EC50", "setting": "Lck enzyme; [2]", "result": "≥ 1", "unit": "µM"}, {"measurement": "EC50", "setting": "Src enzyme", "result": "≥ 1", "unit": "µM"}, {"measurement": "EC50", "setting": "Lyn enzyme", "result": "≥ 1", "unit": "µM"}]}
{"smiles": "CC#CC(=O)N(C)[C@@H](C)c1nc(-c2ccc(C(=O)Nc3cc(C(F)(F)F)ccn3)cc2)c2c(N)nccn12", "note": "[Example 39, (S)-4-(8-amino-3-(1-(N-methylbut-2-ynamido)ethyl)imidazo[1,5-a]pyrazin-1-yl)-N-(4-(trifluoromethyl)pyridin-2-yl)benzamide]", "values": [{"measurement": "EC50", "setting": "FynT enzyme", "result": "≥ 1", "unit": "µM"}, {"measurement": "EC50", "setting": "Btk enzyme (His-Btk); [3]", "result": "< 10", "unit": "nM"}, {"measurement": "EC50", "setting": "Lck enzyme; [2]", "result": "≥ 1", "unit": "µM"}, {"measurement": "EC50", "setting": "Src enzyme", "result": "≥ 1", "unit": "µM"}, {"measurement": "EC50", "setting": "Lyn enzyme", "result": "≥ 1", "unit": "µM"}]}
{"smiles": "C=CC(=O)N1CCC[C@H]1c1nc(-c2ccc(C(=O)Nc3ccccn3)cc2)c2c(N)nccn12", "note": "[Example 1, (S)-4-(3-(1-Acryloylpyrrolidin-2-yl)-8-aminoimidazo[1,5-a]pyrazin-1-yl)-N-(pyridin-2-yl)benzamide]", "values": [{"measurement": "EC50", "setting": "FynT enzyme", "result": "≥ 1", "unit": "µM"}, {"measurement": "EC50", "setting": "Btk enzyme (His-Btk); [3]", "result": "< 10", "unit": "nM"}, {"measurement": "EC50", "setting": "Lck enzyme; [2]", "result": "≥ 1", "unit": "µM"}, {"measurement": "EC50", "setting": "Src enzyme", "result": "≥ 1", "unit": "µM"}, {"measurement": "EC50", "setting": "Lyn enzyme", "result": "≥ 1", "unit": "µM"}]}
{"smiles": "CC#CC(=O)N1CCCC[C@H]1c1nc(-c2ccc(C(=O)Nc3cccnn3)cc2)c2c(N)nccn12", "note": "[Example 23, (S)-4-(8-Amino-3-(1-but-2-ynoylpiperidin-2-yl)imidazo[1,5-a]pyrazin-1-yl)-N-(pyridazin-3-yl)benzamide]", "values": [{"measurement": "EC50", "setting": "FynT enzyme", "result": "≥ 1", "unit": "µM"}, {"measurement": "EC50", "setting": "Btk enzyme (His-Btk); [3]", "result": "< 10", "unit": "nM"}, {"measurement": "EC50", "setting": "Lck enzyme; [2]", "result": "≥ 1", "unit": "µM"}, {"measurement": "EC50", "setting": "Src enzyme", "result": "≥ 1", "unit": "µM"}, {"measurement": "EC50", "setting": "Lyn enzyme", "result": "≥ 1", "unit": "µM"}]}
{"smiles": "C=CC(=O)N1CCC[C@H]1c1nc(-c2ccc(C(=O)Nc3ccccn3)c(F)c2)c2c(N)nccn12", "note": "[Example 13, (S)-4-(3-(1-acryloylpyrrolidin-2-yl)-8-aminoimidazo[1,5-a]pyrazin-1-yl)-2-fluoro-N-(pyridin-2-yl)benzamide]", "values": [{"measurement": "EC50", "setting": "FynT enzyme", "result": "≥ 1", "unit": "µM"}, {"measurement": "EC50", "setting": "Btk enzyme (His-Btk); [3]", "result": "< 10", "unit": "nM"}, {"measurement": "EC50", "setting": "Lck enzyme; [2]", "result": "≥ 1", "unit": "µM"}, {"measurement": "EC50", "setting": "Src enzyme", "result": "≥ 1", "unit": "µM"}, {"measurement": "EC50", "setting": "Lyn enzyme", "result": "≥ 1", "unit": "µM"}]}
{"smiles": "COC/C=C/C(=O)N1CCC[C@H]1c1nc(-c2ccc(C(=O)Nc3cc(C#N)ccn3)cc2)c2c(N)nccn12", "note": "[Example 98, (S,E)-4-(8-amino-3-(1-(4-methoxybut-2-enoyl)pyrrolidin-2-yl)imidazo[1,5-a]pyrazin-1-yl)-N-(4-cyanopyridin-2-yl)benzamide]", "values": [{"measurement": "EC50", "setting": "FynT enzyme", "result": "≥ 1", "unit": "µM"}, {"measurement": "EC50", "setting": "Btk enzyme (His-Btk)", "result": "10 to 100", "unit": "nM"}, {"measurement": "EC50 Btk activity values", "setting": "Btk enzyme (His-Btk); [1]", "result": "<100", "unit": "nM"}, {"measurement": "EC50", "setting": "Lck enzyme; [2]", "result": "≥ 1", "unit": "µM"}, {"measurement": "EC50", "setting": "Src enzyme", "result": "≥ 1", "unit": "µM"}, {"measurement": "EC50", "setting": "Lyn enzyme", "result": "≥ 1", "unit": "µM"}]}
{"smiles": "C=CC(=O)N1CCCCCC1c1nc(-c2ccc(C(=O)Nc3ccccn3)cc2)c2c(N)nccn12", "note": "(stereo not drawn) [Example 37, 4-(3-(1-Acrloylazepan-2-yl)-8-aminoimidazo[1,5-a]pyrazin-1-yl)-N-(pyridin-2-yl)benzamide]", "values": [{"measurement": "EC50", "setting": "FynT enzyme", "result": "≥ 1", "unit": "µM"}, {"measurement": "EC50", "setting": "Btk enzyme (His-Btk); [3]", "result": "< 10", "unit": "nM"}, {"measurement": "EC50", "setting": "Lck enzyme; [2]", "result": "≥ 1", "unit": "µM"}, {"measurement": "EC50", "setting": "Src enzyme", "result": "≥ 1", "unit": "µM"}, {"measurement": "EC50", "setting": "Lyn enzyme", "result": "≥ 1", "unit": "µM"}]}
